Experiments:
Type in all cases: in vivo
[1] = Experiment 6 sensory evaluation of cyclic dipeptides, “top sharp saltiness”
Method: (§1) An aqueous solution in which the concentration of each of the cyclic dipeptides shown in the table described below is set to be the same as its concentration in the heat-treated coriander prepared in 1.1. described above, as estimated from the ratio of the peak area of the cyclic dipeptides to the peak area of the internal standard (47 μg/g of L-lysine-^13C6 monohydrochloride) (hereinafter referred to as “heat-treated coriander equivalent aqueous solution”) was prepared. An aqueous solution in which the concentration of each of the cyclic dipeptides is set to be the same as its concentration in the heat-treated paprika of Example 203 prepared in 2.1 described above (hereinafter referred to as “heat-treated paprika equivalent aqueous solution”) was also prepared. Cyclic dipeptides prepared by the applicant were used in this experiment. As a cyclic dipeptide comprising Leu/Ile, a mixture comprising equal parts of cyclic dipeptide comprising Leu and cyclic dipeptide comprising Ile was used.
(§2) Common and reduced-sodium curry rouxes were prepared according to the procedures described in (1) and (2) of 1.3. described above.
(§3) Two dispersions of 44 g of the aforesaid reduced-sodium curry roux dispersed in 300 g of hot water were prepared. To one of them was added the heat-treated coriander equivalent solution or heat-treated paprika equivalent aqueous solution of the individual cyclic dipeptides shown in the table described below so as to be in the final concentration of 0.5% (w/w) or 1.0% (w/w), respectively.
(§4) Forty-four grams of the aforesaid common curry roux was dispersed in 300 g of hot water.
(§5) The dispersion of reduced-sodium curry roux dispersed in hot water and the dispersion of common curry roux dispersed in hot water were used as comparative controls, and the strength of the flavor was evaluated by three evaluators on the basis of the following evaluation criteria from the viewpoint of “top sharp saltiness”, “middle fullness (enhanced thickness) and “boosting of last flavor (aftertaste).”
(§6) The average of the evaluated scores was defined as “F” when it was 1.0 or lower, “C” when it was 1.1 or higher and 1.9 or lower, “B” when it was 2.0 or higher and 2.5 or lower, “A” when it was 2.6 or higher and 2.9 or lower, and “AA” when it was 3.0 or higher.
(§7) In the table described below, “ID” refers to the compound ID described above. The items of “coriander 0.5%” and “coriander 1.0%” refer to the addition of the aforesaid heat-treated coriander equivalent aqueous solution of cyclic dipeptide so that the final concentrations may be 0.5% (w/w) and 1.0% (w/w), respectively. The items of “paprika 0.5%” and “paprika 1.0%” refer to the addition of the aforesaid heat-treated paprika equivalent aqueous solution of cyclic dipeptide so that the final concentration may be 0.5% (w/w) and 1.0% (w/w), respectively.

[2] = Experiment 6 sensory evaluation of cyclic dipeptides, “middle fullness (enhanced thickness)”
Method: as §1, §2, §3, §4, §5, §6, §7

[3] = Experiment 6 sensory evaluation of cyclic dipeptides, “boosting of last flavor (aftertaste)”
Method: as §1, §2, §3, §4, §5, §6, §7

[4] = Additive amount coriander 0.5% (heat-treated coriander equivalent aqueous solution, final 0.5% (w/w)), reduced-sodium curry roux
[5] = Additive amount coriander 0.5%, reduced-sodium curry roux
[6] = heat-treated coriander equivalent aqueous solution of cyclic dipeptide, final 1.0% (w/w) in reduced-sodium curry roux dispersion
[7] = heat-treated coriander equivalent aqueous solution of cyclic dipeptide, final 1.0% (w/w) in reduced-sodium curry roux dispersion, 3 evaluators
[8] = Additive amount paprika 0.5%, reduced-sodium curry roux
[9] = heat-treated paprika equivalent aqueous solution of cyclic dipeptide, final 1.0% (w/w) in reduced-sodium curry roux dispersion
[10] = heat-treated paprika equivalent aqueous solution of cyclic dipeptide, final 1.0% (w/w) in reduced-sodium curry roux dispersion, 3 evaluators

Substance | Top sharp saltiness Average [1, 4] | Top sharp saltiness Evaluation [1, 5] | Top sharp saltiness Evaluation [1, 6] | Top sharp saltiness Average [1, 7] | Middle fullness Average [2, 5] | Middle fullness Evaluation [2, 5] | Middle fullness Evaluation [2, 6] | Middle fullness Average [2, 7] | Bosting of last flavor Average [3, 5] | Bosting of last flavor Evaluation [3, 5] | Bosting of last flavor Evaluation [3, 6] | Bosting of last flavor Average [3, 7] | further results
cyclic (Ala-Arg) [Coriander ID 11] | 2.0 points | B (“B” when it was 2.0 or higher and 2.5 or lower) | B (“B” when it was 2.0 or higher and 2.5 or lower) | 2.2 points | 1.8 points | C (“C” when it was 1.1 or higher and 1.9 or lower) | B (“B” when it was 2.0 or higher and 2.5 or lower) | 2.7 points | 1.8 points | B (“B” when it was 2.0 or higher and 2.5 or lower) | A (“A” when it was 2.6 or higher and 2.9 or lower) | 2.7 points | –
cyclic (Ala-Asn) [Coriander ID 56] | 2.3 points | B (“B” when it was 2.0 or higher and 2.5 or lower) | B (“B” when it was 2.0 or higher and 2.5 or lower) | 2.0 points | 2.3 points | B (“B” when it was 2.0 or higher and 2.5 or lower) | A (“A” when it was 2.6 or higher and 2.9 or lower) | 2.7 points | 2.3 points | B (“B” when it was 2.0 or higher and 2.5 or lower) | B (“B” when it was 2.0 or higher and 2.5 or lower) | 2.5 points | –
cyclic (Ala-Asp) [Coriander ID 58] | – | – | – | – | – | – | – | – | – | – | – | – | Top sharp saltiness Average ([1]; Additive amount paprika 0.5% (heat-treated paprika equivalent aqueous solution, final 0.5% (w/w)), reduced-sodium curry roux): 3.0 points; Top sharp saltiness Evaluation [1, 8]: AA (“AA” when it was 3.0 or higher); Top sharp saltiness Evaluation [1, 9]: AA (“AA” when it was 3.0 or higher); Top sharp saltiness Average [1, 10]: 3.0 points; Middle fullness Average [2, 8]: 3.3 points; Middle fullness Evaluation [2, 8]: AA (“AA” when it was 3.0 or higher); Middle fullness Evaluation [2, 9]: AA (“AA” when it was 3.0 or higher); Middle fullness Average [2, 10]: 3.0 points; Bosting of last flavor Average [3, 8]: 3.2 points; Bosting of last flavor Evaluation [3, 8]: AA (“AA” when it was 3.0 or higher); Bosting of last flavor Evaluation [3, 9]: AA (“AA” when it was 3.0 or higher); Bosting of last flavor Average [3, 10]: 3.2 points
cyclic (Ala-His) [Coriander ID 10] | 2.7 points | A (“A” when it was 2.6 or higher and 2.9 or lower) | B (“B” when it was 2.0 or higher and 2.5 or lower) | 2.3 points | 3.2 points | AA (“AA” when it was 3.0 or higher) | AA (“AA” when it was 3.0 or higher) | 3.3 points | 3.3 points | AA (“AA” when it was 3.0 or higher) | AA (“AA” when it was 3.0 or higher) | 3.7 points | –
